Data: publication PMC9820531, “Porcine Relaxin but Not Serelaxin Shows Residual Bioactivity after In Vitro Simulated Intestinal Digestion—Clues for the Development of New Relaxin Peptide Agonists Suitable for Oral Delivery” (International Journal of Molecular Sciences, 2022)

Tests used:
RXFP1 relaxin receptor [1] = target: T1, RXFP1 relaxin receptor (Homo sapiens, UniProt Q9HBX9); experiment: cAMP response by THP-1 cells to intact relaxins; format: cell-based; settings: intact peptide 100 ng/mL, 15 min stimulation, IBMX 100 μM, forskolin 10^−4 M as maximum, chemiluminescent HitHunterXP cAMP II assay, triplicate points, two independent experiments
T1 construct: a marked, significant rise of cAMP in RXFP-1-expressing THP-1 cells; endogenous in cells; host or cells: THP-1 human monocytic cells (ECACC)
T1 sequence (Q9HBX9 1-757): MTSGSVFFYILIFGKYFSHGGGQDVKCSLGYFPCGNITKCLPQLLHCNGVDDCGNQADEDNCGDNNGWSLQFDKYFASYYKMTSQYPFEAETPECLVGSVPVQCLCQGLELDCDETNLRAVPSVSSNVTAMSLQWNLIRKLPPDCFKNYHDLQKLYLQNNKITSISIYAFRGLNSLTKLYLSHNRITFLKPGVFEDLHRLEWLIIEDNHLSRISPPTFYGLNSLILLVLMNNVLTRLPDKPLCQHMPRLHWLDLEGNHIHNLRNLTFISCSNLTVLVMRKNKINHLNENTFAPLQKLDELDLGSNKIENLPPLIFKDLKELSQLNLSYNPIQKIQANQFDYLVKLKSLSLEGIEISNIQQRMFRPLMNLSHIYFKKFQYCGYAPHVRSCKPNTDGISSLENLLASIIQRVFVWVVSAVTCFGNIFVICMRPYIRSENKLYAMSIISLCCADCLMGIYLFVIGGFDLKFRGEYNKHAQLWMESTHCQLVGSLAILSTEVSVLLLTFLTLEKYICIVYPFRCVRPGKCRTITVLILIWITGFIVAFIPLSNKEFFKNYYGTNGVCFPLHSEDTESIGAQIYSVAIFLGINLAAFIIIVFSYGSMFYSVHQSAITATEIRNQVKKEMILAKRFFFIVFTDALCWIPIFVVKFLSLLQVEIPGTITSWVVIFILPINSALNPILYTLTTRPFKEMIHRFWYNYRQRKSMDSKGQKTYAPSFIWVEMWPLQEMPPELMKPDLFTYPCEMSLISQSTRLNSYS
Protocol: Human monocytic THP-1 cells (European Collection of Cell Cultures ECACC, Salisbury, UK) were cultured in suspension in RPMI medium containing 10% fetal calf serum, 250 U/mL penicillin G and 250 μg/mL streptomycin in a 5% CO2 atmosphere at 37 °C. Aliquots containing 6 × 10^5 THP-1 cells in 1 mL PBS were placed in a 24-well plate, added with IBMX (100 μM) to prevent cAMP catabolism, and then incubated with intact serelaxin (100 ng/mL), pRLX (100 ng/mL) or equivalent solutions of their digestion by-products. According to previous studies, cAMP assay was carried out 15 min after addition of the stimuli, i.e., in the midst of the second, sustained cAMP surge upon RXFP1 stimulation. Measurements of cAMP were determined by the chemiluminescent HitHunterXP™ cAMP II assay (DiscoverX, Birmingham, UK). The standard curve was performed in duplicate, and the experimental points in triplicate. Since the standard curve was sigmoidal, nonlinear regression was used to extrapolate unknown experimental cAMP values, expressed as nmol/L, according to the manufacturer’s instructions. Two independent experiments were performed. For positive control, the adenylate cyclase activator forskolin (10^−4 M) was used. Finally, the values of cAMP in each experimental sample were normalized by the amount of proteins, measured by the micro-BCATM Protein Assay Kit (Pierce, IL, USA) method, and expressed as mg/mL.

RXFP-1 receptor = settings: serelaxin versus pRLX, similar cellular models; cited from earlier work
RXFP1 relaxin receptor [2] = target: T1, RXFP1 relaxin receptor; experiment: cAMP response by THP-1 cells to SIF digestion products; format: cell-based; settings: SIF: pancreatin 500 μg/mL, CaCl2, pH 7, 37 °C, peptide 1.12 μM; digestion products tested at equivalent of 100 ng/mL on THP-1 cells, 15 min; read-out cAMP
Protocol: The effects of duodenal enzyme digestion on the noted serelaxin and pRLX preparations was carried out by addition of a simulated intestinal fluid (SIF), composed of a solution of pancreatin (500 μg/mL), CaCl2 0.75 M (0.1 v/v), pH adjusted to 7 adding dropwise an aqueous solution of NaOH 0.1 M to pRLX and serelaxin solutions. In particular: 0.5 mg/mL aqueous solution of pRLX (MW 5918, 0.084 mM) was added to SIF in a 50 mL Falcon, mixing in a 37 °C bath, to a final pRLX concentration 1.12 μM; 0.2 mL of this solution were sampled and quenched by pH adjusting (0.1 M HCl), at the following times: t = 0”/10”/20”/30”/60”/120”/600”/1800”. […]
Human monocytic THP-1 cells (European Collection of Cell Cultures ECACC, Salisbury, UK) were cultured in suspension in RPMI medium containing 10% fetal calf serum, 250 U/mL penicillin G and 250 μg/mL streptomycin in a 5% CO2 atmosphere at 37 °C. […] Measurements of cAMP were determined by the chemiluminescent HitHunterXP™ cAMP II assay (DiscoverX, Birmingham, UK). […] Since the standard curve was sigmoidal, nonlinear regression was used to extrapolate unknown experimental cAMP values, expressed as nmol/L, according to the manufacturer’s instructions. […] Finally, the values of cAMP in each experimental sample were normalized by the amount of proteins, measured by the micro-BCATM Protein Assay Kit (Pierce, IL, USA) method, and expressed as mg/mL.

[3] = test system: acute heart failure patients; set-up: method as in PMID 31433919, PMID 31886953; settings: IV infusion 30 μg/kg/day; cited from earlier work
[4] = set-up: method as in PMID 8257492; settings: in vivo; cited from earlier work

Substance: serelaxin
- intracellular cAMP increase as % of the maximal cAMP surge induced by forskolin (RXFP1 relaxin receptor [1]): 88.6%
- affinity for the RXFP-1 receptor relative to the other relaxin (RXFP-1 receptor): higher affinity
- SIF exposure time at which cAMP levels dropped down to levels of unstimulated control cells (RXFP1 relaxin receptor [2]): 120 s
- SIF exposure time at which the decrease in cAMP production became fully manifest and statistically significant (RXFP1 relaxin receptor [2]): 60 s
- effects on length of hospitalization, occurrence of cardiovascular death, and disease relapses requiring re-hospitalization in comparison with placebo [3]: no substantial effects
- half-life [4]: about 2 h
